Data taken from patent publication US20130184290A1, “SELF-EMULSIFYING FORMULATIONS AND METHODS OF USE THEREOF” (CAPSUGEL, Inc., priority 2011, published 2013).
Like-named read-outs stand apart in the source and are kept apart here.

Assays:
[1] = Tolerability of compound 1 doses; type: in vivo; conditions: doses of up to 1,600 mg
Excerpt: Yet, compound 1 is also known to have decreased oral bioavailability in the fasted state, as compared to the fed state. Accordingly, the invention provides formulations to increase the oral bioavailability or to reduce patient-to-patient variability in pharmacokinetic behavior of compound 1, compound 2, or a salt thereof. These formulations include use of a self-emulsifying carrier system to provide stable emulsions capable of dissolving therapeutically effective amounts of compound 1, compound 2, or a salt thereof.

[2] = tested on: Caco-2 cells; assay: Apparent intestinal permeability, Caco-2 cell model; type: in vitro ADME; conditions: for Papp R3: replicate 3
Excerpt: (§1) Absorption of particular drugs may be limited by biological factors, such as reduced cellular permeability in the intestine. Many cellular mechanisms can influence permeability, such as reduced passive paracellular and transcellular transport or increased active export by the efflux transporter protein P-glycoprotein. Thus, the use of self-emulsifying carriers may not be beneficial for drugs having limited cellular permeability, where methods to increase the solubilization of a drug may not increase its permeability in the gastrointestinal tract. Experiments were conducted to assess the apparent intestinal permeability of compound 1 using a Caco-2 cell model.
(§2) Briefly, Caco-2 cells were used as an in vitro model for predicting absorption through the intestinal epithelium. Confluent monolayers of Caco-2 cells were grown on collagen-coated, microporous, polycarbonate membranes (12-well Costar Transwell® plates) that are placed between two chambers. The apical side of the monolayer was exposed to the buffer solution in a first chamber, but the basolateral side of the monolayer adhered to microporous membranes fluidically connected to a second chamber. The dosing solution was added to the first chamber for measurements in the apical-to-basolateral direction (A-to-B) and to the second chamber for measurements in the basolateral-to-apical direction (B-to-A). […] The permeability assay buffer was Hanks Balanced Salt Solution containing 10 mM HEPES and 15 mM glucose at a pH of 7.4. The buffer in the receiver chamber also contained 1% bovine serum albumin. The dosing solution concentration was 1 μM of compound 1 in the assay buffer. All donor chambers were first pre-incubated for five minutes with dosing solution to attempt to saturate any non-specific binding sites on the device with test compound. After five minutes, the solution was removed and replaced with fresh dosing solution, and time was recorded as 0. Cell monolayers were dosed on the apical side/first chamber (for A-to-B measurements) or basolateral side/second chamber (for B-to-A measurements) and incubated at 37° C. with 5% CO2 in a humidified incubator. At 30 and 60 minutes, aliquots were taken from the receiver chambers and replaced with fresh assay buffer. Samples were taken from the donor chamber at 0 and 60 minutes. Each experiment was performed in triplicate.
(§3) The apparent permeability (Papp), percent recovery, and efflux ratio were calculated as follows: […]
(§4) is the slope of the cumulative concentration in the receiver chamber as a function of time; V, [cm^3] is the volume of the receiver chamber; Vd [cm^3] is the volume of the donor chamber; A [cm^2] is the area of the cell monolayer, which is estimated to be about 1.13 cm^2 for the 12-well Costar Transwell® plates; C0[μM] is the measured concentration in the donor chamber at t=0 hours; CN [μM] is the nominal concentration of the dosing solution; Cr,final [μM] is the cumulative concentration in the receiver chamber at the end of the incubation period; and Cd,final [μM] is the cumulative concentration in the donor chamber at the end of the incubation period.
(§5) Thus, absorption of compound 1 in humans is not expected to be permeability limited.

[3] = as above; type: in vitro ADME; conditions: human, Caco-2, pH 7.4
Excerpt: as §1, §2, §3, §4, §5

[4] = Previously determined solubility of compound 1; type: physicochemical
Excerpt: Compound 1 has the following previously determined characteristics: […]

[5] = Fed-fasted pharmacokinetics of compound 1 HCl salt; type: in vivo; conditions: for half-life: human, in vivo, po, read-out: t1/2 for absorption
Excerpt: The fed-fasted pharmacokinetic data were collected using a “normal fat” meal consisting of toast with 1 pat of butter, a banana, 2% milk, apple juice, and Honey Nut Cheerios®, where the meal has about 501 calories with 99 calories from fat, 346 calories from carbohydrates, and 56 calories from protein; and using a “high fat” meal consisting of 2 eggs fried in butter, 2 strips of bacon, 2 slices of toast with butter, 4 ounces of hash brown potatoes and 8 ounces of whole milk, where the meal has about 1,000 calories with 500-600 calories from fat, 250 calories from carbohydrates, and 150 calories, from protein.

[6] = Previously determined hygroscopicity of compound 1; type: physicochemical; conditions: free base; at 70% relative humidity (RH)
Excerpt: Compound 1 has the following previously determined characteristics:
(vi) hygroscopicity (for free base): 0.09% at 70% relative humidity (RH);

[7] = Physical stability, formulations having one carrier; type: physicochemical

| Papp R3 ([2]; A-to-B) | Papp R3 ([2]; B-to-A) | permeability classification ([2]; based on Papp(A-to-B)) | efflux of compound 1 ([2]; based on efflux ratio) | Papp A→B at 60 min, 1 μM ([3]; A-to-B, average) [nm/s] | efflux ratio at 60 min, 1 μM ([3]; read-out: Efflux Ratio (Papp (B-to-A)/Papp (A-to-B))) | solubility in propylene glycol, ethanol, and tetrahydrofuran [4] | solubility in water [4] | Tmax ([5]; fed state with high fat meal) [h] | Tmax ([5]; fed state with normal fat meal) [h] | half-life ([5]; fasted state) [h] | half-life ([5]; fed state with high fat meal) [h] | half-life ([5]; fed state with normal fat meal) [h] | hygroscopicity [6] [%] | Physical Stability, one month [7] [month] | Physical Stability, one month (cells printed in weeks) [7] [week] | Physical Stability, one week [7] [week] | Compound | adverse effects [1] |
| --- | --- | --- | --- | --- | --- | --- | --- | --- | --- | --- | --- | --- | --- | --- | --- | --- | --- | --- |
| 6.78 10^−6 cm/s | 4.45 10^−6 cm/s | high permeability coefficient | not considered significant | > 10 | < 3 | soluble | slightly soluble | 4 to 5 | 2 to 5 | 0.05 to 0.17 | 0.8 to 2.8 | 0.5 to 1.6 | 0.09 | – | – | – | O=C(CC(c1ccccc1)c1ccccc1)N1CCN(C(c2ccccc2)c2ccccc2)CC1 [Compound 1, 1-(4-benzhydrylpiperazin-1-yl)-3,3-diphenylpropan-1-one] | no adverse effects |
| – | – | – | – | – | – | – | – | – | – | – | – | – | – | >1 | >1 | >1 | Caprylic/capric glycerides | – |
| – | – | – | – | – | – | – | – | – | – | – | – | – | – | >1 | – | >1 | PEG 8 caprylic/capric glycerides | – |
